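All cell lines were grown in 96-well plates and treated with compound for 48 hours. TGI: total growth inhibition.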
Test system: 786-0 renal
Experiment: NCI-60 cell line screen, 48 h

| Structure (SMILES) | TGI |
| --- | --- |
| COc1ccc(-n2cnc3c(NC(CCSC)C(=O)O)ncnc32)cc1 (stereo not drawn) | > 100 µM |
| COC(=O)C1=C(C)N2[C@H](C(=O)O)CO[C@@]2(C)[C@H](C(=O)OC)[C@H]1c1cccc([N+](=O)[O-])c1 | > 100 µM |
| Cc1ccc(/C=C2\CCCC(CN3CCCCC3)C2=O)cc1 (stereo not drawn) | 4.02 µM |
| OC(c1ccc(-c2ccccc2)cc1)C(F)(F)c1nc2ccccc2o1 (stereo not drawn) | 74.6 µM |
| O=C(CC(=O)Nc1ccccc1)N/N=C/c1cc(N=Nc2ccc(Br)cc2)ccc1O | > 10 µM |
| CCC[C@H](C)C[C@H](C)C[C@H](C)/C=C(\C)[C@@H](O)[C@@H](C)C(=O)CC | 35.7 µM |
| FC(F)(F)c1ccc2nc(Sc3ccccn3)cnc2c1 | 62.1 µM |
| Nc1ccc(CCN2CCN(CCCc3ccccc3)CC2)cc1 | > 100 µM |
| C[C@H]1C=C2[C@@H]3CC(C)(C(=O)O)CC[C@]3(C)CC[C@]2(C)[C@]2(C)CC[C@H]3C(C)(C)[C@@H](OC(=O)c4cccc5c(=O)c6ccccc6[nH]c45)CC[C@]3(C)[C@@H]12 (stereo partly drawn) | > 100 µM |
| COC(=O)c1c(OC(C)=O)ccc2c1c1c(OC(C)=O)c3ccccc3c(OC(C)=O)c1n2Cc1ccccc1 | 37.2 µM |
| CN(C)CCCN1c2ccccc2CCc2ccc([N+](=O)[O-])cc21 | > 100 µM |
| COc1ccc(N=C2C(=Nc3ccc(OC)cc3)N(c3ccccc3)C(=S)N2N=C=C2Sc3ccccc3N2C)cc1 | > 100 µM |
| CCOC(=O)CSc1nnc(C(Sc2nc(-c3ccccc3)c(-c3ccccc3)[nH]2)C(C)C)n1-c1ccccc1 (stereo not drawn) | > 31.6 µM |
| CC(C)(C)OC(=O)NCCC1CN(C(=O)c2ccccc2)c2ccccc21 (stereo not drawn) | > 100 µM |
| COC(=O)C1=C(OC(=O)c2ccccc2)C(C(=O)OC)[C@]2(O)[C@@H](C(=O)OC)[C@H]1C[C@@H](c1ccccc1)[C@@H]2C(=O)OC (stereo partly drawn) | 93.8 µM |
| O=C(/C=C/c1csc(-c2ccccc2)n1)NCc1ccc(C(=O)NCc2ccccc2)cc1 | > 100 µM |

Test system: A549 NSCLC
Experiment: NCI-60 cell line screen, 48 h

| Structure (SMILES) | TGI |
| --- | --- |
| COc1ccc(-n2cnc3c(NC(CCSC)C(=O)O)ncnc32)cc1 (stereo not drawn) | > 100 µM |
| COC(=O)C1=C(C)N2[C@H](C(=O)O)CO[C@@]2(C)[C@H](C(=O)OC)[C@H]1c1cccc([N+](=O)[O-])c1 | > 100 µM |
| Cc1ccc(/C=C2\CCCC(CN3CCCCC3)C2=O)cc1 (stereo not drawn) | 33.1 µM |
| OC(c1ccc(-c2ccccc2)cc1)C(F)(F)c1nc2ccccc2o1 (stereo not drawn) | > 100 µM |
| O=C(CC(=O)Nc1ccccc1)N/N=C/c1cc(N=Nc2ccc(Br)cc2)ccc1O | > 10 µM |
| CCC[C@H](C)C[C@H](C)C[C@H](C)/C=C(\C)[C@@H](O)[C@@H](C)C(=O)CC | 39.4 µM |
| FC(F)(F)c1ccc2nc(Sc3ccccn3)cnc2c1 | > 100 µM |
| Nc1ccc(CCN2CCN(CCCc3ccccc3)CC2)cc1 | > 100 µM |
| C[C@H]1C=C2[C@@H]3CC(C)(C(=O)O)CC[C@]3(C)CC[C@]2(C)[C@]2(C)CC[C@H]3C(C)(C)[C@@H](OC(=O)c4cccc5c(=O)c6ccccc6[nH]c45)CC[C@]3(C)[C@@H]12 (stereo partly drawn) | > 100 µM |
| COC(=O)c1c(OC(C)=O)ccc2c1c1c(OC(C)=O)c3ccccc3c(OC(C)=O)c1n2Cc1ccccc1 | 34.2 µM |
| CN(C)CCCN1c2ccccc2CCc2ccc([N+](=O)[O-])cc21 | > 100 µM |
| COc1ccc(N=C2C(=Nc3ccc(OC)cc3)N(c3ccccc3)C(=S)N2N=C=C2Sc3ccccc3N2C)cc1 | > 100 µM |
| CCOC(=O)CSc1nnc(C(Sc2nc(-c3ccccc3)c(-c3ccccc3)[nH]2)C(C)C)n1-c1ccccc1 (stereo not drawn) | > 31.6 µM |
| CC(C)(C)OC(=O)NCCC1CN(C(=O)c2ccccc2)c2ccccc21 (stereo not drawn) | > 100 µM |
| COC(=O)C1=C(OC(=O)c2ccccc2)C(C(=O)OC)[C@]2(O)[C@@H](C(=O)OC)[C@H]1C[C@@H](c1ccccc1)[C@@H]2C(=O)OC (stereo partly drawn) | 34.5 µM |
| O=C(/C=C/c1csc(-c2ccccc2)n1)NCc1ccc(C(=O)NCc2ccccc2)cc1 | > 100 µM |

Test system: HCC-2998 colon
Experiment: NCI-60 cell line screen, 48 h

| Structure (SMILES) | TGI |
| --- | --- |
| COc1ccc(-n2cnc3c(NC(CCSC)C(=O)O)ncnc32)cc1 (stereo not drawn) | > 100 µM |
| COC(=O)C1=C(C)N2[C@H](C(=O)O)CO[C@@]2(C)[C@H](C(=O)OC)[C@H]1c1cccc([N+](=O)[O-])c1 | > 100 µM |
| Cc1ccc(/C=C2\CCCC(CN3CCCCC3)C2=O)cc1 (stereo not drawn) | 28.9 µM |
| OC(c1ccc(-c2ccccc2)cc1)C(F)(F)c1nc2ccccc2o1 (stereo not drawn) | > 100 µM |
| O=C(CC(=O)Nc1ccccc1)N/N=C/c1cc(N=Nc2ccc(Br)cc2)ccc1O | > 10 µM |
| CCC[C@H](C)C[C@H](C)C[C@H](C)/C=C(\C)[C@@H](O)[C@@H](C)C(=O)CC | 31.2 µM |
| FC(F)(F)c1ccc2nc(Sc3ccccn3)cnc2c1 | 38.3 µM |
| Nc1ccc(CCN2CCN(CCCc3ccccc3)CC2)cc1 | > 100 µM |
| C[C@H]1C=C2[C@@H]3CC(C)(C(=O)O)CC[C@]3(C)CC[C@]2(C)[C@]2(C)CC[C@H]3C(C)(C)[C@@H](OC(=O)c4cccc5c(=O)c6ccccc6[nH]c45)CC[C@]3(C)[C@@H]12 (stereo partly drawn) | > 100 µM |
| COC(=O)c1c(OC(C)=O)ccc2c1c1c(OC(C)=O)c3ccccc3c(OC(C)=O)c1n2Cc1ccccc1 | 5.22 µM |
| CN(C)CCCN1c2ccccc2CCc2ccc([N+](=O)[O-])cc21 | 28.5 µM |
| COc1ccc(N=C2C(=Nc3ccc(OC)cc3)N(c3ccccc3)C(=S)N2N=C=C2Sc3ccccc3N2C)cc1 | > 100 µM |
| CCOC(=O)CSc1nnc(C(Sc2nc(-c3ccccc3)c(-c3ccccc3)[nH]2)C(C)C)n1-c1ccccc1 (stereo not drawn) | 43.5 µM |
| CC(C)(C)OC(=O)NCCC1CN(C(=O)c2ccccc2)c2ccccc21 (stereo not drawn) | > 100 µM |
| COC(=O)C1=C(OC(=O)c2ccccc2)C(C(=O)OC)[C@]2(O)[C@@H](C(=O)OC)[C@H]1C[C@@H](c1ccccc1)[C@@H]2C(=O)OC (stereo partly drawn) | 25 µM |
| O=C(/C=C/c1csc(-c2ccccc2)n1)NCc1ccc(C(=O)NCc2ccccc2)cc1 | > 100 µM |

Test system: MCF7 breast
Experiment: NCI-60 cell line screen, 48 h

| Structure (SMILES) | TGI |
| --- | --- |
| COc1ccc(-n2cnc3c(NC(CCSC)C(=O)O)ncnc32)cc1 (stereo not drawn) | > 100 µM |
| COC(=O)C1=C(C)N2[C@H](C(=O)O)CO[C@@]2(C)[C@H](C(=O)OC)[C@H]1c1cccc([N+](=O)[O-])c1 | > 100 µM |
| Cc1ccc(/C=C2\CCCC(CN3CCCCC3)C2=O)cc1 (stereo not drawn) | 2.1 µM |
| OC(c1ccc(-c2ccccc2)cc1)C(F)(F)c1nc2ccccc2o1 (stereo not drawn) | > 100 µM |
| O=C(CC(=O)Nc1ccccc1)N/N=C/c1cc(N=Nc2ccc(Br)cc2)ccc1O | > 10 µM |
| CCC[C@H](C)C[C@H](C)C[C@H](C)/C=C(\C)[C@@H](O)[C@@H](C)C(=O)CC | 42.7 µM |
| FC(F)(F)c1ccc2nc(Sc3ccccn3)cnc2c1 | > 100 µM |
| Nc1ccc(CCN2CCN(CCCc3ccccc3)CC2)cc1 | > 100 µM |
| C[C@H]1C=C2[C@@H]3CC(C)(C(=O)O)CC[C@]3(C)CC[C@]2(C)[C@]2(C)CC[C@H]3C(C)(C)[C@@H](OC(=O)c4cccc5c(=O)c6ccccc6[nH]c45)CC[C@]3(C)[C@@H]12 (stereo partly drawn) | > 100 µM |
| COC(=O)c1c(OC(C)=O)ccc2c1c1c(OC(C)=O)c3ccccc3c(OC(C)=O)c1n2Cc1ccccc1 | > 50 µM |
| CN(C)CCCN1c2ccccc2CCc2ccc([N+](=O)[O-])cc21 | 34.1 µM |
| COc1ccc(N=C2C(=Nc3ccc(OC)cc3)N(c3ccccc3)C(=S)N2N=C=C2Sc3ccccc3N2C)cc1 | > 100 µM |
| CCOC(=O)CSc1nnc(C(Sc2nc(-c3ccccc3)c(-c3ccccc3)[nH]2)C(C)C)n1-c1ccccc1 (stereo not drawn) | > 100 µM |
| CC(C)(C)OC(=O)NCCC1CN(C(=O)c2ccccc2)c2ccccc21 (stereo not drawn) | 85.5 µM |
| COC(=O)C1=C(OC(=O)c2ccccc2)C(C(=O)OC)[C@]2(O)[C@@H](C(=O)OC)[C@H]1C[C@@H](c1ccccc1)[C@@H]2C(=O)OC (stereo partly drawn) | 15.7 µM |
| O=C(/C=C/c1csc(-c2ccccc2)n1)NCc1ccc(C(=O)NCc2ccccc2)cc1 | > 100 µM |

Test system: MDA-MB-231 breast
Experiment: NCI-60 cell line screen, 48 h

| Structure (SMILES) | TGI |
| --- | --- |
| COc1ccc(-n2cnc3c(NC(CCSC)C(=O)O)ncnc32)cc1 (stereo not drawn) | > 100 µM |
| COC(=O)C1=C(C)N2[C@H](C(=O)O)CO[C@@]2(C)[C@H](C(=O)OC)[C@H]1c1cccc([N+](=O)[O-])c1 | > 100 µM |
| Cc1ccc(/C=C2\CCCC(CN3CCCCC3)C2=O)cc1 (stereo not drawn) | 3.34 µM |
| OC(c1ccc(-c2ccccc2)cc1)C(F)(F)c1nc2ccccc2o1 (stereo not drawn) | > 96.6 µM |
| O=C(CC(=O)Nc1ccccc1)N/N=C/c1cc(N=Nc2ccc(Br)cc2)ccc1O | > 10 µM |
| CCC[C@H](C)C[C@H](C)C[C@H](C)/C=C(\C)[C@@H](O)[C@@H](C)C(=O)CC | 44.6 µM |
| FC(F)(F)c1ccc2nc(Sc3ccccn3)cnc2c1 | > 100 µM |
| Nc1ccc(CCN2CCN(CCCc3ccccc3)CC2)cc1 | > 100 µM |
| C[C@H]1C=C2[C@@H]3CC(C)(C(=O)O)CC[C@]3(C)CC[C@]2(C)[C@]2(C)CC[C@H]3C(C)(C)[C@@H](OC(=O)c4cccc5c(=O)c6ccccc6[nH]c45)CC[C@]3(C)[C@@H]12 (stereo partly drawn) | > 100 µM |
| COC(=O)c1c(OC(C)=O)ccc2c1c1c(OC(C)=O)c3ccccc3c(OC(C)=O)c1n2Cc1ccccc1 | 37.2 µM |
| CN(C)CCCN1c2ccccc2CCc2ccc([N+](=O)[O-])cc21 | > 100 µM |
| COc1ccc(N=C2C(=Nc3ccc(OC)cc3)N(c3ccccc3)C(=S)N2N=C=C2Sc3ccccc3N2C)cc1 | > 100 µM |
| CCOC(=O)CSc1nnc(C(Sc2nc(-c3ccccc3)c(-c3ccccc3)[nH]2)C(C)C)n1-c1ccccc1 (stereo not drawn) | 64.1 µM |
| CC(C)(C)OC(=O)NCCC1CN(C(=O)c2ccccc2)c2ccccc21 (stereo not drawn) | > 100 µM |
| COC(=O)C1=C(OC(=O)c2ccccc2)C(C(=O)OC)[C@]2(O)[C@@H](C(=O)OC)[C@H]1C[C@@H](c1ccccc1)[C@@H]2C(=O)OC (stereo partly drawn) | 41.4 µM |
| O=C(/C=C/c1csc(-c2ccccc2)n1)NCc1ccc(C(=O)NCc2ccccc2)cc1 | 53.5 µM |

Test system: NCI-H460 lung
Experiment: NCI-60 cell line screen, 48 h

| Structure (SMILES) | TGI |
| --- | --- |
| COc1ccc(-n2cnc3c(NC(CCSC)C(=O)O)ncnc32)cc1 (stereo not drawn) | > 100 µM |
| COC(=O)C1=C(C)N2[C@H](C(=O)O)CO[C@@]2(C)[C@H](C(=O)OC)[C@H]1c1cccc([N+](=O)[O-])c1 | > 100 µM |
| Cc1ccc(/C=C2\CCCC(CN3CCCCC3)C2=O)cc1 (stereo not drawn) | 15.9 µM |
| OC(c1ccc(-c2ccccc2)cc1)C(F)(F)c1nc2ccccc2o1 (stereo not drawn) | > 100 µM |
| O=C(CC(=O)Nc1ccccc1)N/N=C/c1cc(N=Nc2ccc(Br)cc2)ccc1O | > 10 µM |
| CCC[C@H](C)C[C@H](C)C[C@H](C)/C=C(\C)[C@@H](O)[C@@H](C)C(=O)CC | 53.4 µM |
| FC(F)(F)c1ccc2nc(Sc3ccccn3)cnc2c1 | > 100 µM |
| Nc1ccc(CCN2CCN(CCCc3ccccc3)CC2)cc1 | > 100 µM |

— PubChem BioAssay (NCI)
